Data as given in US9079913B2, “Spiro-oxindole MDM2 antagonists” (The Regents of the University of Michigan, priority 2009, dated 2015).
Like-named read-outs stand apart in the source and are kept apart here.

Columns and labels:
[1] = target: recombinant human His-tagged MDM2 protein (residues 1-118) (Homo sapiens (Human), UniProt Q00987); assay: Fluorescence-polarization MDM2 binding assay;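 also: fluorescence polarization read after three hours of incubation in potassium phosphate buffer containing bovine gamma globulin and Triton X-100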
Procedure: The assay was performed in the buffer: 100 mM potassium phosphate, pH 7.5; 100 μg/mL bovine gamma globulin; 0.02% sodium azide, 0.01% Triton X-100) and the polarization values were measured after 3 h of incubation using an ULTRA READER (Tecan U.S. Inc., Research Triangle Park, N.C.). […] The Kd value was calculated using the equation: Kd value=IC50−L0/2.
The polarization values were measured after 3 h of incubation. […] Curve fitting was performed using [sequence] PRISM software (GraphPad Software, Inc., San Diego, Calif.). […] Compounds shown in Tables 19A-D as the free base were tested either as the free base or as the CF3CO2H (TFA) or HCl salt.

[2] = tested on: Isogenic HCT-116 colon cancer cell lines; assay: cells; format: cell-based;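 also: cells grown in 96-well plates in McCoy's 5A medium with 10% FBS, exposed to compound for 4 days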
Procedure: Cells were seeded in 96-well flat bottom cell culture plates at a density of 2−3×10^3 cells/well with compounds and incubated for 4 days.

[3] = tested on: cancer cell lines with wild-type p53 / mutated or deleted p53 (ATCC); assay: Cell growth assay (WST-8), other cancer cell lines; format: cell-based
[4] = In vitro microsomal stability, rat; format: in vitro ADME
[5] = Table 19A, FP binding assay, read-out: MDM2 IC50
[6] = Homo sapiens, HCT-116, read-out: HCT-116 (p53-/-) IC50, Table 19A, HCT-116 p53-/-, cell growth
[7] = Homo sapiens, HCT-116, read-out: HCT-116 (p53 wild-type) IC50, Table 19A, HCT-116 p53 wild-type, cell growth
[8] = Homo sapiens, LNCaP, Table 19A, LNCAP cells, p53 wild-type, cell growth, read-out: LNCAP (p53 wild-type) IC50
[9] = Homo sapiens, PC-3, Table 19A, PC-3 cells, deleted p53, cell growth, read-out: PC-3 (deleted p53) IC50
[10] = Homo sapiens, SJSA-1, Table 19A, SJSA-1 cells, p53 wild-type, cell growth, read-out: SJSA-1 (p53 wild-type) IC50
[11] = Table 19B, read-out: Binding affinities to MDM2 protein as determined by FP based assay IC50
[12] = Table 19D, read-out: MDM2 Binding Affinities IC50
[13] = Homo sapiens, HCT-116, read-out: HCT116p53KO IC50, Table 19D, HCT116 p53KO
[14] = Homo sapiens, HCT-116, read-out: HCT116p53WT IC50, Table 19D, HCT116 p53WT
[15] = Homo sapiens, LNCaP, Table 19D, LNCaP cells, read-out: LNCaP IC50
[16] = Homo sapiens, PC-3, Table 19D, PC3 cells, read-out: PC3 IC50
[17] = Homo sapiens, Table 19D, SJSA-1 cells, unit inferred, read-out: SJSA-1
[18] = Homo sapiens, HCT-116, read-out: Inhibition of cell growth IC50, HCT116 p53 KO, Table 19B, HCT116 p53 KO
[19] = Homo sapiens, HCT-116, read-out: Inhibition of cell growth IC50, HCT116 p53 WT, Table 19B, HCT116 p53 WT
[20] = Homo sapiens, LNCaP, Table 19B, LNCaP cells, read-out: Inhibition of cell growth IC50, LNCaP
[21] = Homo sapiens, PC-3, Table 19B, PC3 cells, read-out: Inhibition of cell growth IC50, PC3

Chain of recombinant human His-tagged MDM2 protein (residues 1-118) (Q00987 1-118): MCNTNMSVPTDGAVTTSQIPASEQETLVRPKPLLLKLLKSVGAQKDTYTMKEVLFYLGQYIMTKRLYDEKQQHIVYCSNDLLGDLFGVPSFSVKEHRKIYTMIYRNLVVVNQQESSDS

CC(C)N1CCN(CCCNC(=O)[C@@H]2N[C@H](CC(C)(C)C)[C@]3(C(=O)Nc4cc(Cl)ccc43)[C@H]2c2cccc(Cl)c2F)CC1 [MI-519-45]
IC50 [1, 5]: < 10 µM
IC50 [2, 6]: 6.9 ± 1.9 µM
IC50 [2, 7]: 0.9 ± 0.3 µM
IC50 [3, 8]: 1 ± 0.2 µM
IC50 [3, 9]: 5.1 ± 0.9 µM
IC50 [3, 10]: 0.8 ± 0.2 µM
% of compound remaining when incubated in rat liver microsomes ([4]; Table 17, 0 min): 100%
% of compound remaining when incubated in rat liver microsomes ([4]; Table 17, 4 min): 81.1%
% of compound remaining when incubated in rat liver microsomes ([4]; Table 17, 6 min): 59.6%
% of compound remaining when incubated in rat liver microsomes ([4]; Table 17, 10 min): 50.7%
% of compound remaining when incubated in rat liver microsomes ([4]; Table 17, 15 min): 44.3%
% of compound remaining when incubated in rat liver microsomes ([4]; Table 17, 30 min): 38.5%

CNC(=O)[C@@H]1N[C@H](CC(C)(C)C)[C@]2(C(=O)Nc3cc(Cl)c(F)cc32)[C@H]1c1cccc(Cl)c1 [MI-519-40]
IC50 [1, 5]: < 1 µM
IC50 [2, 6]: 18.5 ± 5.5 µM
IC50 [2, 7]: 1 ± 0.1 µM
IC50 [3, 8]: 1 ± 0.1 µM
IC50 [3, 9]: 14.6 ± 2.7 µM
IC50 [3, 10]: 1.3 ± 0.3 µM
% of compound remaining when incubated in rat liver microsomes ([4]; Table 17, 0 min): 100%
% of compound remaining when incubated in rat liver microsomes ([4]; Table 17, 4 min): 84.2%
% of compound remaining when incubated in rat liver microsomes ([4]; Table 17, 6 min): 70.1%
% of compound remaining when incubated in rat liver microsomes ([4]; Table 17, 10 min): 59.6%
% of compound remaining when incubated in rat liver microsomes ([4]; Table 17, 15 min): 58.7%
% of compound remaining when incubated in rat liver microsomes ([4]; Table 17, 30 min): 57.6%
microsomal stability (in words) ([4]; rat liver microsomes): improved microsomal stability over MI-219

CC(C)(C)C[C@H]1N[C@@H](C(=O)NCCCN2CCN(C3CC3)CC2)[C@H](c2cccc(Cl)c2F)[C@@]12C(=O)Nc1cc(Cl)ccc12 [MI-519-47]
IC50 [1, 5]: < 10 µM
IC50 [2, 6]: 7.8 ± 0.9 µM
IC50 [2, 7]: 1.1 ± 0.2 µM
IC50 [3, 8]: 1.1 ± 0.3 µM
IC50 [3, 9]: 5.7 ± 0.6 µM
IC50 [3, 10]: 1.1 µM
% of compound remaining when incubated in rat liver microsomes ([4]; Table 17, 0 min): 100%
% of compound remaining when incubated in rat liver microsomes ([4]; Table 17, 4 min): 80.1%
% of compound remaining when incubated in rat liver microsomes ([4]; Table 17, 6 min): 61.1%
% of compound remaining when incubated in rat liver microsomes ([4]; Table 17, 10 min): 45.3%
% of compound remaining when incubated in rat liver microsomes ([4]; Table 17, 15 min): 38.1%
% of compound remaining when incubated in rat liver microsomes ([4]; Table 17, 30 min): 34.3%

CN1[C@@H](C(=O)NCC[C@H](O)CO)[C@H](c2cccc(Cl)c2)[C@@]2(C(=O)Nc3cc(Cl)c(F)cc32)[C@H]1CC(C)(C)C [MI-708B]
IC50 [1, 11]: > 3 µM
IC50 ([2]; read-out: Inhibition of cell growth IC50, HCT116 p53 KO, Table 19B, HCT116 p53 KO): 96.9 ± 17.8 µM
IC50 ([2]; read-out: Inhibition of cell growth IC50, HCT116 p53 WT, Table 19B, HCT116 p53 WT): 6.6 ± 2.2 µM
IC50 ([3]; Table 19B, LNCaP cells, read-out: Inhibition of cell growth IC50, LNCaP): 6 ± 0.3 µM
IC50 ([3]; Table 19B, PC3 cells, read-out: Inhibition of cell growth IC50, PC3): 84.5 ± 18.3 µM

CC(C)(C)C[C@H]1N[C@@H](C(=O)NC2CCN(CCC(F)(F)F)CC2)[C@H](c2cccc(Cl)c2F)[C@@]12C(=O)Nc1cc(Cl)ccc12 [MI-519-57-1]
IC50 [1, 12]: < 1 µM
IC50 [2, 13]: 9.5 µM
IC50 [2, 14]: < 3 µM
IC50 [3, 15]: < 3 µM
IC50 [3, 16]: 8.8 µM
IC50 [3, 17]: < 3 µM

CC(C)(C)C[C@H]1N[C@@H](C(=O)N[C@@H]2CCN(CCF)C[C@@H]2F)[C@H](c2cccc(Cl)c2F)[C@@]12C(=O)Nc1cc(Cl)ccc12 [MI-519-59]
IC50 [1, 12]: < 1 µM
IC50 [2, 13]: > 10 µM
IC50 [2, 14]: < 1 µM
IC50 [3, 15]: < 3 µM
IC50 [3, 16]: > 10 µM
IC50 [3, 17]: < 3 µM

O=C(NCC[C@H](O)CO)[C@@H]1N[C@H](CCC2CCCC2)[C@]2(C(=O)Nc3cc(Cl)c(F)cc32)[C@H]1c1cccc(Cl)c1 [MI-712]
IC50 [1, 11]: < 3 µM
IC50 [2, 18]: 9.1 ± 1 µM
IC50 [2, 19]: 1.8 ± 0.4 µM
IC50 [3, 20]: 1 µM
IC50 [3, 21]: 7.9 ± 0.2 µM

CC(C)(C)C[C@H]1N[C@@H](C(=O)NCC[C@H](O)CO)[C@H](c2cccc(Cl)c2)[C@@]12C(=O)Nc1c(Cl)cccc12 [MI-727]
IC50 [1, 11]: > 10 µM
IC50 [2, 18]: 20.9 ± 1.1 µM
IC50 [2, 19]: 24.1 ± 0.7 µM
IC50 [3, 20]: 12.2 ± 0.5 µM
IC50 [3, 21]: 21.4 ± 4.8 µM

CC(=O)N1CC(NC(=O)[C@@H]2N[C@H](CC(C)(C)C)[C@]3(C(=O)Nc4cc(Cl)ccc43)[C@H]2c2cccc(Cl)c2F)C1 [MI-915]
IC50 [1, 5]: < 3 µM
IC50 [2, 6]: > 30 µM
IC50 [2, 7]: < 10 µM
IC50 [3, 8]: < 10 µM
IC50 [3, 9]: > 30 µM
IC50 [3, 10]: < 10 µM

C[C@@H](N)C(=O)OC1CCC(NC(=O)[C@@H]2N[C@H](CC(C)(C)C)[C@]3(C(=O)Nc4cc(Cl)ccc43)[C@H]2c2cccc(Cl)c2F)CC1 (stereo partly drawn) [MI-906]
IC50 [1, 5]: < 1 µM
IC50 [2, 6]: 9.1 µM
IC50 [2, 7]: < 3 µM
IC50 [3, 8]: < 3 µM
IC50 [3, 9]: 3.6 µM
IC50 [3, 10]: < 3 µM

CCC(C)(C)C[C@H]1N[C@@H](C(=O)NCC[C@H](O)CO)[C@H](c2cccc(Cl)c2)[C@@]12C(=O)Nc1cc(Cl)c(F)cc12 [MI-720]
IC50 [1, 11]: < 1 µM
IC50 [2, 18]: 19.5 ± 5.6 µM
IC50 [2, 19]: 0.69 µM
IC50 [3, 20]: 0.76 ± 0.1 µM
IC50 [3, 21]: 15.2 ± 3.2 µM
